Literature values as cited in patent US8771310B2, “Anti-no-reflow guide wire for vascular interventional procedures” (Adenopaint, LLC, priority 2007, dated 2014).

Columns and labels:
patients undergoing PCI = details: preloading 600 mg
[1] = tested on: patients with stable and unstable angina; details: intracoronary infusion or bolus via guide catheter prior to procedure; 24 hours after PCI
patients with STEMI = details: large intravenous doses
[2] = tested on: patients undergoing PCI of SVGs; details: PCI of degenerated SVGs

For `COC(=O)[C@H](c1ccccc1Cl)N1CCc2sccc2C1` [clopidogrel], the “cell necrosis after PCI” value (patients undergoing PCI) is listed as “reduced cell necrosis”.

In the case of `Nc1ncnc2c1ncn2[C@@H]1O[C@H](CO)[C@@H](O)[C@H]1O` [adenosine], the “rise in CK-MB and Troponin after PCI” value [1] is given as “significantly attenuated the rise” and the “cardioprotection with reperfusion therapies” value (patients with STEMI) is given as “cardioprotective affects”.

B1: abciximab: IIb/IIIa platelet inhibitor (antibody, chains of the INN, looked up, V domains shown)
VH: EVQLQQSGTVLARPGASVKMSCEASGYTFTNYWMHWVKQRPGQGLEWIGAIYPGNSDTSYIQKFKGKAKLTAVTSTTSVYMELSSLTNEDSAVYYCTLYDGYYVFAYWGQGTLVTVSA
VL: EIVLTQSPVTLSVTPGDSVSLSCRASRDISNNLHWFQQTSHESPRLLIKYASQSMSGIPSRFSGSGSGTDFTLSINSVETEDFGMYFCQQTNSWPYTFGGGTKLEIK
modifications: Fab
For B1, the “MACE at thirty days” value [2] is listed as “failed to reduce MACE at thirty days”.
